Legend:
[1] = target: T1, MAP/microtubule affinity-regulating kinase 4 (Homo sapiens) (UniProt Q96L34); test: Selectivity interaction (KinomeScan (DiscoverX)) EUB0001049a MARK4; settings: at 1 µM
T1 sequence (whole entry): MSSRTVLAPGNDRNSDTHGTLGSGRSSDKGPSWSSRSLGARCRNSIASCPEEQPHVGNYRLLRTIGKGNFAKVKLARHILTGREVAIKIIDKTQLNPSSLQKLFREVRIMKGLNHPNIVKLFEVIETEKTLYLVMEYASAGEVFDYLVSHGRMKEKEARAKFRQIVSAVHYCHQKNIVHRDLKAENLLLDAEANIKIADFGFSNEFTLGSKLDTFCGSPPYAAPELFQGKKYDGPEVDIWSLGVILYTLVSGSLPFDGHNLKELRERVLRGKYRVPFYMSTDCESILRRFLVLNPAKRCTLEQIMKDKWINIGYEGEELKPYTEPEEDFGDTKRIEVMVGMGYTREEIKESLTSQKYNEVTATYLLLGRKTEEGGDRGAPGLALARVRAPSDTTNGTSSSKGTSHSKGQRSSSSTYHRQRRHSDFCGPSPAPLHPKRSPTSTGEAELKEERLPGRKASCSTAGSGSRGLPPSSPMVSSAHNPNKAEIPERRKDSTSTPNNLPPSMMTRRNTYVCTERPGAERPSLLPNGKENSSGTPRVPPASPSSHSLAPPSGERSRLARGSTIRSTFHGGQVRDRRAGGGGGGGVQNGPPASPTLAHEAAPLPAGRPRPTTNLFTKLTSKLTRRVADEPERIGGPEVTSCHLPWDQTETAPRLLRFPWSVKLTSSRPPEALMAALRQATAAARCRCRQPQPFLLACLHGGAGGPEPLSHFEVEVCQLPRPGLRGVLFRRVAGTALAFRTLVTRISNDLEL

[2] = target: Histone acetyltransferase KAT2A (Homo sapiens) (UniProt Q92830); test: Selectivity interaction (Bromodomain panel (DSF asssay)) EUB0000270b KAT2A
[3] = target: T2, Ephrin type-B receptor 1 (Homo sapiens) (UniProt P54762); test: Selectivity interaction (KinomeScan (DiscoverX)) EUB0000045b EPHB1
T2 sequence (whole entry): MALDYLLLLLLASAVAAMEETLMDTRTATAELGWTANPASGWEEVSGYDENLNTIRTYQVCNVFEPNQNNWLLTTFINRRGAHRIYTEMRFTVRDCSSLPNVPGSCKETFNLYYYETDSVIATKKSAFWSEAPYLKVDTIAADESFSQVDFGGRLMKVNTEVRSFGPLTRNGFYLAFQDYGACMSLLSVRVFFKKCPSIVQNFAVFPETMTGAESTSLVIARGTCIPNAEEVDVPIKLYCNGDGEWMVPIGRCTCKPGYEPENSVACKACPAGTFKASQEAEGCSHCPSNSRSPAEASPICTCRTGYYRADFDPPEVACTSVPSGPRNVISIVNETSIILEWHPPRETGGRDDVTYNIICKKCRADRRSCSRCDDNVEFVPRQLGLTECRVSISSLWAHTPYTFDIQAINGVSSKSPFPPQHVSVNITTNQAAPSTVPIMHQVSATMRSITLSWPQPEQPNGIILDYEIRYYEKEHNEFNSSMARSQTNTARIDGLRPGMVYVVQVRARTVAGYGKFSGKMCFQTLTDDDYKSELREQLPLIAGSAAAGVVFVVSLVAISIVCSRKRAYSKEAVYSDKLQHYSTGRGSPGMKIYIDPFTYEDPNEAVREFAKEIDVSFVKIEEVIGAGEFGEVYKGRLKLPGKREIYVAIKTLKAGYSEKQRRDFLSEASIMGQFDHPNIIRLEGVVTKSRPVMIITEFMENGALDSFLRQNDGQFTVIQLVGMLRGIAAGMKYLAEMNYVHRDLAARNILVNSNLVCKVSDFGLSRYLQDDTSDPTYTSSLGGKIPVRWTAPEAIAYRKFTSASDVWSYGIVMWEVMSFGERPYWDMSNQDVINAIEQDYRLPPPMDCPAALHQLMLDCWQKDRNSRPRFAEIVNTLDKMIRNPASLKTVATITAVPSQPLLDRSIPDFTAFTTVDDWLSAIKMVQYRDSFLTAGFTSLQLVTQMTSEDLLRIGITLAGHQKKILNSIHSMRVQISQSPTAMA

[4] = target: T3, Ephrin type-B receptor 4 (Homo sapiens) (UniProt P54760); test: Selectivity interaction (KinomeScan (DiscoverX)) EUB0000618a EPHB4; settings: at 10 µM
T3 sequence (whole entry): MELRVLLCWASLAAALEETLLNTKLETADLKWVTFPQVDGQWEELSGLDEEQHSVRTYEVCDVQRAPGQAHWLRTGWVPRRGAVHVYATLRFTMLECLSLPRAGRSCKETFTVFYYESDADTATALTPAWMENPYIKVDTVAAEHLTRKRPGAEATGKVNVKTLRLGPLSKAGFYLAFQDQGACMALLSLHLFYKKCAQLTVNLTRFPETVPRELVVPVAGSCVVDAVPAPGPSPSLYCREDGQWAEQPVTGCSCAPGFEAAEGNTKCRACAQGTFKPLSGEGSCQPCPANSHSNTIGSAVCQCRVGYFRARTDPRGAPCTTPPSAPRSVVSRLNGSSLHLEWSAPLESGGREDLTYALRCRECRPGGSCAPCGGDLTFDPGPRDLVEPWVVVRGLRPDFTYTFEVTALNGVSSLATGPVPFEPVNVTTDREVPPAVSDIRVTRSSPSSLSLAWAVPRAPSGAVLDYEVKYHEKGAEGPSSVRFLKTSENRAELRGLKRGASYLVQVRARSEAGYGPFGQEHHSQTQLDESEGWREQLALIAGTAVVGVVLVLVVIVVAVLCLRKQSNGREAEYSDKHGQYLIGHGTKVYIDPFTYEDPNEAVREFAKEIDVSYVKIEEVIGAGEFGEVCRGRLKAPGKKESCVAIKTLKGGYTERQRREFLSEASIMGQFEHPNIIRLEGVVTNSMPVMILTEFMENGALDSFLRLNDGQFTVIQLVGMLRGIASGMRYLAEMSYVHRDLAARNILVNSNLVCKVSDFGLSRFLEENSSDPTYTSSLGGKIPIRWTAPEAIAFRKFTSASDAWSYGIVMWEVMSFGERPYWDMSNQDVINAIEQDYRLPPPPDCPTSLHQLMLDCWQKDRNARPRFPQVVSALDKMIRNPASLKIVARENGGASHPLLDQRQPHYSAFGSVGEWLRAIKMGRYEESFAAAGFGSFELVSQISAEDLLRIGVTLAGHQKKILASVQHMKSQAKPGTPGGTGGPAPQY

[5] = target: Protein kinase C delta type (Homo sapiens) (UniProt Q05655); test: Selectivity interaction (KinomeScan (DiscoverX)) EUB0000607a PRKCD; settings: at 10 µM
Sequence of Protein kinase C delta type (Homo sapiens) (Q05655 whole entry, looked up): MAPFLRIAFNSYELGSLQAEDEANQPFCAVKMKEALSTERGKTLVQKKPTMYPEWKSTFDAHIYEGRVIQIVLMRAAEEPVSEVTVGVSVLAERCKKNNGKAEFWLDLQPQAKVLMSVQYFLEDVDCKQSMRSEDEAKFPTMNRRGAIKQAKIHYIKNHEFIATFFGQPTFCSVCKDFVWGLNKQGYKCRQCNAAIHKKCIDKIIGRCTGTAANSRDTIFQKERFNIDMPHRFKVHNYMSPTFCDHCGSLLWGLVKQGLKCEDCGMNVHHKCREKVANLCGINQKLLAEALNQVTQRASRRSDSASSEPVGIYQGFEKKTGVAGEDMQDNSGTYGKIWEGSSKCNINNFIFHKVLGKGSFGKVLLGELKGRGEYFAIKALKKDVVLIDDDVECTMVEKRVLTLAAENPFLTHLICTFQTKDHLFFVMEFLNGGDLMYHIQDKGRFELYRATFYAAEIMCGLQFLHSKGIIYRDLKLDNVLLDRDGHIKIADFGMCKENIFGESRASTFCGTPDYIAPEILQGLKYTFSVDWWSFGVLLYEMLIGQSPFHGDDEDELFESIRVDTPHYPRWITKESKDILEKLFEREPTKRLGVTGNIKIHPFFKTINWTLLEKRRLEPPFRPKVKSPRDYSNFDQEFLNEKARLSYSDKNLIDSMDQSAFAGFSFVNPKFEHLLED

Sequence of Histone acetyltransferase KAT2A (Homo sapiens) (Q92830 2-837 limits assumed): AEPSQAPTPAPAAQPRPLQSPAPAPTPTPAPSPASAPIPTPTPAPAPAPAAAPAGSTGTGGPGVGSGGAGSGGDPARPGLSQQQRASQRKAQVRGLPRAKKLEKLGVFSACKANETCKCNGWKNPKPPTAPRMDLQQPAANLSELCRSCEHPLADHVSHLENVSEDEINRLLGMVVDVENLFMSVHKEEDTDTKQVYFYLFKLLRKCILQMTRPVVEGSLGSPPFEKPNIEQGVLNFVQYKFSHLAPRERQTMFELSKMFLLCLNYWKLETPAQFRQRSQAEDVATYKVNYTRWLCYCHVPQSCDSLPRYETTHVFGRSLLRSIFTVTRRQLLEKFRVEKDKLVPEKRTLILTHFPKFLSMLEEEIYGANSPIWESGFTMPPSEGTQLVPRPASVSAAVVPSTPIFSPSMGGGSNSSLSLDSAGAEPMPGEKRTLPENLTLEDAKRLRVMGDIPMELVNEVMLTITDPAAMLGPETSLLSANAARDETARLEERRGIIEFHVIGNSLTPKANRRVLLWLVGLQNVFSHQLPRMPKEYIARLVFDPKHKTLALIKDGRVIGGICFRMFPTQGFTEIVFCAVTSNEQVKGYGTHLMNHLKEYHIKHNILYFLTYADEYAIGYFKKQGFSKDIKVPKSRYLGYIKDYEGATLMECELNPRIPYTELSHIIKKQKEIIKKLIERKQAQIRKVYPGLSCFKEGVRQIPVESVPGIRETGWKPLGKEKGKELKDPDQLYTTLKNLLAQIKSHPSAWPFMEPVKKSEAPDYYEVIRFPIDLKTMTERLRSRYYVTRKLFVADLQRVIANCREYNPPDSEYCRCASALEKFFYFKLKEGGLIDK

COc1cc(Nc2nc(C)cc(-c3cnn4nc(OC)ccc34)n2)cc(C(F)(F)F)c1
% of control [1]: 100%

Cc1cc(CN)cc(C)c1-c1ncn(C)c1-c1cncn1C
dTM [2]: -2.29 K

C=CC(=O)Nc1cc(-n2c(=O)ccc3cnc4ccc(-c5ccc(NS(C)(=O)=O)cc5)cc4c32)ccc1C
% of control ([3]; at 1 µM): 100% | % of control ([3]; at 10 µM): 100%

O[C@H]1CC[C@H](Nc2ncc3nc(Nc4c(F)cc(F)cc4F)n([C@H]4CCOC4)c3n2)CC1
% of control [4]: 100%

CNC(=O)Nc1ccc(-c2nc(N3CC4CCC(C3)O4)c3cnn(C4CCC5(CC4)OCCO5)c3n2)cc1
% of control [5]: 100%

Source: ChEMBL document CHEMBL5465560, “Selectivity Literature for EUbOPEN Chemogenomic Library” (2024)
